The values below come from US8461183B2, “PPAR agonist compounds, preparation and uses” (Genfit, priority 2008, dated 2013).

By EC50 is commonly meant the concentration giving half of the maximal effect.

Common to all, as to type: cell-based
Test [1] addresses T1, hPPARα (Homo sapiens, UniProt Q07869).
T1 construct: corresponding to the DEF domains (structural elements of the promoter of the PPARs: D=hinge, EF=ligand fixation domain and AF2 fixation site); expressed in transfected cells; host or cells: COS-7 (monkey kidney fibroblasts)
T1 sequence (Q07869 239-466 limits assumed): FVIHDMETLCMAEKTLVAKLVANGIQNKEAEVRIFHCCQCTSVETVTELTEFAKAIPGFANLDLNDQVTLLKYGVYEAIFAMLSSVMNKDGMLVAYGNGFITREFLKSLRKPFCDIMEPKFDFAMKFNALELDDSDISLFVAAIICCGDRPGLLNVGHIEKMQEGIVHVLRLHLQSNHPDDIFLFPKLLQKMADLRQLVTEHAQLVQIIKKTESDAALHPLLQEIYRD
The test can be described thus: Gal4-hPPARα chimera transactivation (luciferase) in COS-7 cells. The conditions noted are these: COS-7 cells, Gal4-hPPARα, 24 hours; for EC50: luciferase, read-out: PPARα EC50; for Emax: relative to maximum activation obtained with fenofibric acid, read-out: PPARα TOP % (maximum activation). The essentials: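 COS-7 cells transiently co-transfected with Gal4 DBD–human PPARα, γ or δ DEF-domain chimeras plus Gal4(RE)_TkpGL3 luciferase reporter (1/10), seeded serum-free, then compound-treated 24 h at 37 °C in 1% Ultroser. Luciferase read after lysis; EC50 and TOP % relative to maximal activation by fenofibric acid (α), rosiglitazone (γ) or GW501516 (δ).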

Test [2] addresses T2, hPPARγ (Homo sapiens, UniProt P37231).
T2 construct: corresponding to the DEF domains (structural elements of the promoter of the PPARs: D=hinge, EF=ligand fixation domain and AF2 fixation site); expressed in transfected cells; host or cells: COS-7 (monkey kidney fibroblasts)
T2 sequence (P37231 238-503 limits assumed): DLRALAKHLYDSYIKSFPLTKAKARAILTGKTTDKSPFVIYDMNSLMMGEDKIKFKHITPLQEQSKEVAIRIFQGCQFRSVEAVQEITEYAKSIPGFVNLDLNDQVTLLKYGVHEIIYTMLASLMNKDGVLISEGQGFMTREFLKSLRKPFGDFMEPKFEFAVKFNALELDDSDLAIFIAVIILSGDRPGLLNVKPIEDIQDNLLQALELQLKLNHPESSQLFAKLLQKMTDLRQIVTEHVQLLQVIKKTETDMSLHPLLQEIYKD
In words: Gal4-hPPARγ chimera transactivation (luciferase) in COS-7 cells. The following applies: 24 hours; for EC50: luciferase, read-out: PPARγ EC50; for Emax: relative to maximum activation obtained with rosiglitazone, read-out: PPARγ TOP % (maximum activation). The essentials: (§1)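 COS-7 cells transfected with Gal4-DBD fused to human PPARγ or PPARδ DEF (hinge/ligand-binding) domain plus Gal4(RE)_TkpGL3 luciferase reporter (1:10).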

For test [3], the target named is T3, hPPARδ (Homo sapiens, UniProt Q03181).
T3 construct: corresponding to the DEF domains (structural elements of the promoter of the PPARs: D=hinge, EF=ligand fixation domain and AF2 fixation site); expressed in transfected cells; host or cells: COS-7 (monkey kidney fibroblasts)
T3 sequence (Q03181 211-439 limits assumed): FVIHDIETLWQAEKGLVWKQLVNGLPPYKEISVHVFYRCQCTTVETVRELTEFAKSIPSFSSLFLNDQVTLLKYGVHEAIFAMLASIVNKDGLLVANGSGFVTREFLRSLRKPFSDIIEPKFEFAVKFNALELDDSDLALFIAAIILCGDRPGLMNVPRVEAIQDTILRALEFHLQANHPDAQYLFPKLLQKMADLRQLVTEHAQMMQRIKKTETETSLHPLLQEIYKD
The test can be described thus: Gal4-hPPARδ chimera transactivation (luciferase) in COS-7 cells. The conditions noted are these: COS-7 cells, Gal4-hPPARδ, 24 hours; for EC50: luciferase, read-out: PPARδ EC50; for Emax: relative to maximum activation obtained with GW501516, read-out: PPARδ TOP % (maximum activation). The essentials: as §1

On to `COc1nc(-c2ccccc2)ccc1COc1ccc(OCC(=O)O)cc1` [Cpd 2, 2-(4-((2-methoxy-6-phenylpyridin-3-yl)methoxy)phenoxy)ethanoic acid], for which the results for the concentration giving a half-maximal response (EC50) in test [1], in test [2] and in test [3] were 143 nM, 12400 nM and 2000 nM, respectively. Besides, the Emax in test [1] is 48.3%; in test [2], 39.1%; in test [3], 109%.

As for `COc1nc(-c2ccccc2)ccc1CNc1ccc(OCC(=O)O)cc1` [Cpd 4, 2-(4-(((2-methoxy-6-phenylpyridin-3yl)methyl)amino)phenoxy)ethanoic acid], the EC50 in test [1] was found to be 1470 nM; in test [2] it was 17700 nM; in test [3], 8670 nM. In addition, the Emax in test [1] worked out at 66.7%; in test [2] it was 70.5%; in test [3] it was 115%.

Consider `COc1nc(-c2ccccc2)ccc1CNc1ccc(CCC(=O)O)cc1` [Cpd 19, 3-(4-(((2-methoxy-6-phenylpyridin-3-yl)methyl)amino)phenyl)propanoic acid], for which the EC50 in test [1] came to 2370 nM; in test [2], 1290 nM; in test [3] it was 3130 nM. In addition, the Emax in test [1] turned out to be 68%; in test [2], 87%; in test [3], 95.1%.

`COc1nc(-c2ccc(C(F)(F)F)cc2)ccc1COc1ccc(OCC(=O)O)cc1` [Cpd 24, 2-(4-((2-methoxy-6-(4-(trifluoromethyl)phenyl)pyridin-3-yl)methoxy)-phenoxy)ethanoic acid]: the results for the EC50 in test [1], in test [2] and in test [3] were 371 nM, 4490 nM and 784 nM, respectively. For the same molecule, the Emax is 76.8% in test [1], 65.7% in test [2] and 94.1% in test [3].
